Consider 14 compounds from US12497396B2, “Nitrogen-containing heterocyclic derivatives, method therefor and application therefor as inhibitors of KRAS G12C for the treatment of cancers” (SHANGHAI HANSOH BIOMEDICAL CO., LTD., priority 2019, dated 2025).

SMILES strings stand for the structures.

The test system of data set [1] is Mia PaCa-2 cells (KRAS G12C mutant cell line). Briefly: Inhibition of Mia PaCa-2 cell proliferation (CellTiter-Glo, 72 h). As to conditions: Homo sapiens. Type of data set: cell-based, human. From the text:
(§1) As a preferred embodiment of the present disclosure, the detection method of NCI-H358 cell proliferation inhibitory activity and Mia PaCa-2 cell proliferation inhibitory activity is as follows: through cell culture, adding different concentrations of compound solutions to the cultured cells, continuing the culture for a period of time and measuring the cell proliferation; • further, the method of cell culture is: adjusting the cells to a suitable cell concentration with complete medium and spreading the cell suspension in well plates for culture; preferably, the culture conditions are 37° C., 5% CO2 incubator overnight; preferably, the cell suspension is spread in 96-well plates, 48-well plates, 24-well plates, 12-well plates or 6-well plates, more preferably 96-well plates; preferably, the suitable cell concentration is 1500-4000 cells/well, with 90 μL of cell suspension added to each well; • further, the compound solution is prepared with DMSO and may be further diluted with medium; preferably, the compound solution has a concentration gradient starting from 100 μM at 4-fold dilution, more preferably starting from 30 μM at 4-fold dilution, most preferably starting from 10 μM at 4-fold dilution; • further, the volume of the compound solution or solvent added to each well is 1-10 μL, preferably 10 μL; • further, after adding the compound solution, the conditions for continuing the culture are 37° C., 5% CO2 incubator; preferably, the culture time is 24-72 h, more preferably 72 h; • further, the method for measuring cell proliferation is MTT, CCK8, CellTiter-Glo; preferably the method is CellTiter-Glo; • further, the cell proliferation is read using a microplate reader, more preferably a BioTek Synergy H1 microplate reader.
(§2) When NCI-H358 or Mia PaCa-2 cells were cultured to the appropriate fusion level, the NCI-H358 or Mia PaCa-2 cells were collected, and the cells were adjusted to the appropriate cell concentration using a complete medium, and the cell suspension was spread in a 96-well plate, 90 μL per well, and placed in a 37° C., 5% CO2 incubator overnight; and compound solutions of different concentrations were prepared using DMSO and culture medium; and a solvent control was set, the compound solution was added to a 96-well plate, 10 μL per well, at 37° C. in a 5% CO2 incubator for 72 hours; CellTiter-Glo solution was added thereto and the mixture was mixed well by shaking, incubated for 10 min in the dark, and read by BioTek Synergy H1 microplate reader.
(§3) The luminescence signal values were used to calculate the inhibition rate, the concentration and the inhibition rate were fitted to a nonlinear regression curve using Graphpad Prism software, then the IC50 value was obtained.

Data set [2] concerns NCI-H358 cells (KRAS G12C mutant cell line). Briefly: Inhibition of NCI-H358 cell proliferation (CellTiter-Glo, 72 h). Type of data set: cell-based, human. Particulars: Homo sapiens.
From the text: as §1, §2, §3
(In general: Cellular ATP, detected with luciferase, serves as a proxy for viable cell number.)

The target of a further data set is T1, human KRAS G12C protein (Homo sapiens, UniProt P01116, G12C).
T1 construct: purchased Beijing SinoBiological Co., Ltd. 12259-H07E2
Nature of the data set: Thermal shift: melting temperature of KRAS G12C protein. Type of data set: binding. As to conditions: for Tm (° C.): KRAS G12C protein 5.37 μM with compound 10 μM, 1 hour incubation. The procedure:
A solution containing […] (pH 7.5), 1 mM DTT, 5×SYPRO Orange and 150 mM NaCl was prepared as the experimental buffer, and a final concentration of 5.37 μM human KRAS G12C protein was added thereto. […] After incubating at room temperature in the dark for 1 hour, the PCR tube was put into the PCR instrument, QuantStudio Software v1.3 was opened, and the melting temperature of KRAS G12C protein in different treatment groups was detected by melt curve function (heating from 25° C. to 95° C., 0.03° C./s). The experimental data file of PCR instrument was imported into thermal shift software, and the melting temperature (Tm) of each treatment group was obtained, and the change value of melting temperature (Δ Tm) was obtained by subtracting the Tm of DMSO solvent control group.

The next data set can be described thus: in vitro. Type of data set: in vitro ADME. Particulars: 0.5 μM. The procedure:
Animal or human whole blood was collected, then the blood was put into a test tube containing anticoagulant, centrifuged at 3500 rpm for 10 min, and the upper layer of pale yellow plasma was collected. • 2), 10 μM of tested compound (m/M/V=C)
The compound was weighed, the stock solution was prepared with DMSO and the working solution was prepared with 100 mM phosphate buffer. • 3), 10 μM of positive control (1) Propantheline (Propantheline Mr=449.4 Da)
• 1) 285 μL of plasma and 15 μL of 10 μM compound (tested compound) were added in turn in a 96-well plate, and incubated at 37° C. • 2) 40 μL was taken out at 0, 15, 30, 60, 90, 120 min, respectively, and 160 μL of acetonitrile termination solution containing internal standard was added. • 3) After centrifugation (3500 rpm, 10 min), 50 μL of supernatant was taken out, and then diluted with 50 μL DDH2O and injected to LC-MS/MS.
• Instrument: Shimadzu LC-20 AD • Chromatographic column: phenomenex Gemiu® C18 (50*4.6 mm, 5 μM particle size); • mobile phase: A: acetonitrile, B: 0.1% formic acid solution […], 2.0-2.1 min: 90% A→5% A; flow rate: 0.8 mL/min; running time: 5.0 min; injection volume: 5 μL.
• Instrument: API4000 Liquid Chromatography-Mass Spectrometry, AB, USA; • the ion source was electrospray ionization source (ESI); • the temperature of dry gas (N2) was 500° C.; • electrospray voltage was 5500V; • the detection method was positive ion detection; • the scanning mode was selective response monitoring (MRM). • the scanning time was 0.1 s.

[3] abbreviates: compound 10 μM, Tm minus Tm of DMSO solvent control.

The term IC50 denotes the midpoint of a concentration-inhibition curve. As for `C=CC(=O)N1CCN(c2nc(=O)n(-c3c(SC)ccnc3C(C)C)c3nc(-c4c(O)cccc4F)c(F)cc23)[C@@H](C)C1` (single isomer, unassigned) [Embodiment 60-1], the IC50 in data set [1] turned out to be 55 nM; in data set [2] it was 28 nM.
The corresponding values for `C=CC(=O)N1CCN(c2nc(=O)n(-c3c(C)ccnc3C(C)C)c3nc(-c4c(F)cccc4SC)c(F)cc23)[C@@H](C)C1` (single isomer, unassigned) [Embodiment 75-1] are 36 nM and 25 nM.
With `C=CC(=O)N1CCN(c2nc(=O)n(-c3c(C)ccnc3C(C)C)c3nc(-c4c(F)cccc4C(=O)N(C)C)c(F)cc23)[C@@H](C)C1` [Embodiment 73], the “Tm (° C.)” value at human KRAS G12C protein was found to be 55.5 °C. Besides, the “ΔTm (° C.)” value on human KRAS G12C protein (setting [3]) amounted to 6.9 °C.
A word on the ΔTm: it is the shift of the melting midpoint relative to a reference. For the compound `C=CC(=O)N1[C@H](C)CN(c2nc(=O)n(-c3c(SC)ccnc3C(C)C)c3nc(-c4c(O)cccc4F)c(F)cc23)C[C@@H]1C` [Embodiment 115, 4-((3S, 5R)-4-acryloyl-3,5-dimethylpiperazin-1-yl)-6-fluoro-7-(2-fluoro-6-hydroxyphenyl)-1-(2-isopropyl-4-(methylthio)pyridin-3-yl) pyrido [2,3-d] pyrimidin-2 (1H)-one], the “Tm (° C.)” value at human KRAS G12C protein is 55.2 °C. For the same compound, the ΔTm at 10 µM at human KRAS G12C protein (setting [3]) is 6.6 °C.
The corresponding values for `C=CC(=O)N1CCN(c2nc(=O)n(-c3c(C)ccnc3C(C)C)c3nc(-c4cccnc4SC)c(F)cc23)[C@@H](C)C1` [Embodiment 136, (S)-4-(4-acryloyl-2-methylpiperazin-1-yl)-6-fluoro-1-(2-isopropyl-4-methylpyridin-3-yl)-7-(2-(methylthio)pyridin-3-yl) pyrido [2,3-d] pyrimidin-2 (1H)-one] are 57.3 °C and 8.7 °C.
Regarding `C=CC(=O)N1C[C@H](C)N(c2nc(=O)n(-c3c(SC)ccnc3C(C)C)c3nc(-c4c(N)c(Cl)cc(Cl)c4F)c(Cl)cc23)C[C@H]1C` [Embodiment 193, 4-((2S, 5R)-4-acryloyl-2,5-dimethylpiperazin-1-yl)-7-(2-amino-3,5-dichloro-6-fluorophenyl)-6-chloro-1-(2-isopropyl-4-(methylthio)pyridin-3-yl) pyrido [2,3-d] pyrimidin-2 (1H)-one], in data set [1], the IC50 is 18 nM.
Same read-out and setting: the same measure for `C=CC(=O)N1CCN(c2nc(=O)n(-c3c(SC)ccnc3C(C)C)c3nc(-c4c(N)c(F)cc(Cl)c4F)c(Cl)cc23)[C@@H](C)C1` [Embodiment 194, 4-((S)-4-acryloyl-2-methylpiperazin-1-yl)-7-(2-amino-5-chloro-3,6-difluorophenyl)-6-chloro-1-(2-isopropyl-4-(methylthio)pyridin-3-yl) pyrido [2,3-d] pyrimidin-2 (1H)-one]: 7 nM.
As for `C=CC(=O)N1CCN(c2nc(=O)n(-c3c(SC)ccnc3C(C)C)c3nc(-c4c(N)c(C)cc(F)c4F)c(Cl)cc23)[C@@H](C)C1` [Embodiment 195, 4-((S)-4-acryloyl-2-methylpiperazin-1-yl)-7-(2-amino-5,6-difluoro-3-methylphenyl)-6-chloro-1-(2-isopropyl-4-(methylthio)pyridin-3-yl) pyrido [2,3-d] pyrimidin-2 (1H)-one], the IC50 in data set [1] was 5.2 nM.
Still for that read-out and setting: the same measure for `C=CC(=O)N1C[C@H](C)N(c2nc(=O)n(-c3c(SC)ccnc3C(C)C)c3nc(-c4c(N)c(F)cc(Cl)c4F)c(Cl)cc23)C[C@H]1C` [Embodiment 196, 4-((2S, 5R)-4-acryloyl-2,5-dimethylpiperazin-1-yl)-7-(2-amino-5-chloro-3,6-difluorophenyl)-6-chloro-1-(2-isopropyl-4-(methylthio)pyridin-3-yl) pyrido [2,3-d] pyrimidin-2 (1H)-one]: 5.3 nM; for `C=CC(=O)N1CCN(c2nc(=O)n(-c3c(SC)ccnc3C(C)C)c3nc(-c4c(F)ccc(F)c4N)c(Cl)cc23)[C@@H](C)C1` [Embodiment 198, 4-((S)-4-acryloyl-2-methylpiperazin-1-yl)-7-(2-amino-3,6-difluorophenyl)-6-chloro-1-(2-isopropyl-4-(methylthio)pyridin-3-yl)pyrido[2,3-d]pyrimidin-2(1H)-one]: 6 nM; for `C=CC(=O)N1C[C@H](C)N(c2nc(=O)n(-c3c(SC)ccnc3C(C)C)c3nc(-c4c(N)c(C)cc(F)c4F)c(Cl)cc23)C[C@H]1C` [Embodiment 201, 4-((2S, 5R)-4-acryloyl-2,5-dimethylpiperazin-1-yl)-7-(2-amino-5,6-difluoro-3-methylphenyl)-6-chloro-1-(2-isopropyl-4-(methylthio)pyridin-3-yl) pyrido [2,3-d] pyrimidin-2 (1H)-one]: 4.9 nM.
Same read-out and setting: in the case of `C=CC(=O)N1CCN(c2nc(=O)n(-c3c(SC)ccnc3C(C)C)c3nc(-c4c(C)cccc4F)c(Cl)cc23)[C@@H](C)C1` [Embodiment 206, 4-((S)-4-acryloyl-2-methylpiperazin-1-yl)-6-chloro-7-(2-fluoro-6-methylphenyl)-1-(2-isopropyl-4-(methylthio)pyridin-3-yl) pyrido [2,3-d] pyrimidin-2 (1H)-one] it was 14 nM; in that of `C=CC(=O)N1CCN(c2nc(=O)n(-c3c(SC)ccnc3C(C)C)c3nc(-c4c(F)cccc4Cl)c(Cl)cc23)[C@@H](C)C1` [Embodiment 208, 4-((S)-4-acryloyl-2-methylpiperazin-1-yl)-6-chloro-7-(2-chloro-6-fluorophenyl)-1-(2-isopropyl-4-(methylthio)pyridin-3-yl) pyrido [2,3-d] pyrimidin-2 (1H)-one], 59 nM.
For `CC(C)[N+](C)(CCOC(=O)C1c2ccccc2Oc2ccccc21)C(C)C` [Propantheline, reference compound], in “in vitro” (human), the “Residual rate (%) 0 min” value is 100.00%, the “Residual rate (%) 15 min” value came to 79.98%, the “Residual rate (%) 30 min” value is reported as 50.52% and the “Residual rate (%) 60 min” value was found to be 14.65%. In the data set “in vitro” (human), the “Residual rate (%) 120 min” value amounted to 0.72%. For the same compound, in the data set “in vitro” (mouse), the “Residual rate (%) 0 min” value is recorded as 100.00%, the “Residual rate (%) 15 min” value is listed as 79.79%, the “Residual rate (%) 30 min” value was found to be 48.66% and the “Residual rate (%) 60 min” value turned out to be 23.39%. In “in vitro” (mouse), the “Residual rate (%) 120 min” value is 6.66%.
